# Laboratory results taken from patent publication US20200009135A1, “THERAPEUTIC APPLICATIONS OF MALT1 INHIBITORS” (MEDIVIR AB, priority 2017, published 2020).
# Assays:
# [1] = system: CMV-specific (NLV+) CD8+ Teff cells expressing IFNγ or TNFα; assay: Human whole blood stimulated with (MTTE)3-CMV vaccine; assay type: cell-based; details: 4 μM with 120 nM (MTTE)3-CMV vaccine, 6 hours, three donors
# Procedure: Freshly drawn whole blood from healthy volunteers (2 mL) in a tube was incubated under rotation at 37° C. for 6 hours. […]. After 2 hours Brefeldin-A was added to allow intra-cellular analysis of cytokines (IFNγ and TNFα) by flow-cytometry. Antigen-specific CD8+ T-cells were identified by fluorescence-conjugated tetrameric complexes of HLA-A2 molecules loaded with the NLV peptide epitope ([…]) of CMV pp65.
# [2] = system: Treg suppression of CD4+CD25- effector T cell proliferation; assay: Treg suppressive activity (suppression of CD4+CD25- effector T cell proliferation); assay type: cell-based, human
# Procedure: PBMC were isolated from fresh blood by differential density centrifugation using Ficoll-PLUS (GE Healthcare). Cells were washed three times in RPMI+1% heat-inactivated foetal calf serum (HI-FCS)+1% penicillin/streptomycin (P/S) (1% RPMI), then resuspended in PBS+2% heat inactivated foetal calf serum (HI-FCS)+2.0 mM EDTA (isolation buffer). CD4+CD25- and CD4+CD25+ T cells were isolated, per the manufacturer's instructions (Miltenyi CD4+CD25+ Regulatory T cell Isolation Kit, human). Isolated CD4+CD25− T cells were then labeled with Cell Proliferation Dye eFluor® 450 per manufacturer's instructions (eBioscience). An aliquot of cells was stained with anti-CD3 and anti-CD4 (BioLegend and eBioscience) to assess cell purity and dye labeling by flow cytometry. Cultures were plated in cRPMI, with […] CD4+CD25− cells per well. […]
# FIG. 2. The proliferation of CD4+CD25− T cells, purified from a different donor and labelled with Cell Proliferation Dye eFluor® 450, was assessed following a 4 day activation with anti-CD3/CD28 beads. There was a robust proliferation of the cells, and they were readily distinguished from unlabeled cultured cells (generated in the 10 day culture period).
# The number of proliferating CD4+CD25− “effector” T cells was determined at each ratio (1:4, 1:2, 1:1) of these cells to the cultured cells generated in the previous 10 day culture period (cultured “Treg”). […]
# [3] = system: CD4+FoxP3+CD25+ cell induction; assay: Development of human T-regulatory cells from naive CD4 T cells (FoxP3+CD25+ induction); assay type: cell-based; details: 3 donors, 0.4 μM, 0.4 μM and 4.0 μM
# Procedure: Naïve CD4 T cell sorting and stimulation for regulatory T cell development A flat-bottom 48 well plate was coated with 250 μl of purified functional grade anti-human CD3 at 2 μg/ml in PBS. The plate was sealed and incubated at 37° C. for one hour. Peripheral blood mononuclear cells (PBMC) were isolated from human leucocyte reduction system cones by differential density centrifugation using Ficoll-PLUS (GE Healthcare). Cells were washed three times in RPMI+1% HI-FCS+1% penicillin/streptomycin (P/S) (1% RPMI), then resuspended at a concentration of 200×10^6/ml of 1% RPMI. An aliquot of cells was set aside for single colour controls, and the sample was stained at a dilution of 1:20 with anti-human CD4, anti-human CD45RA, anti-human CD25, and anti-human CD127 (antibodies from BioLegend and eBioscience) for 20 minutes on ice. Following the incubation, the stained PBMC were washed and resuspended at 50×10^6/ml in PBS+1% HI-FCS. Cells were sorted on a BD […] high speed cell sorter for the phenotype CD4+CD45RA+CD127+CD25-. Following the sort, cells were resuspended at 4×10^6/ml in pre-warmed cRPMI containing […] human IL-2 (final concentration 100 U/ml). […]
# Staining Regulatory T Cell Cultures Induced regulatory T cell cultures were washed and counted. […]
# CD4+ naïve T cells cultured for 10 days were analysed for their expression of FoxP3 and CD25. […]
compound,measurement,setting,value
"CO[C@@H](C)c1c(NC(=O)Nc2cnc(-n3nccn3)c(Cl)c2)cnc2cc(Cl)nn12 [Example 2, (S)-1-(5-chloro-6-(2H-1,2,3-triazol-2-yl)pyridin-3-yl)-3-(2-chloro-7-(1-methoxyethyl)pyrazolo[1,5-a]pyrimidin-6-yl)urea]",percentage of activated antigen-specific IFNγ+ and TNFα+ CD8+ T cells,[1],increase
same,"Treg suppression of effector cell proliferation, donor 1","[2]; donor 1, 0.4 μM, 0.4 μM and 4.0 μM",reduced
same,"Treg suppression of proliferation of responding effector T cells, donors 2 and 3","[2]; donors 2 and 3, increasing concentrations",reduced by increasing concentrations
same,generation of a Treg phenotype and function,[3]; highest degree of inhibition with 4.0 μM,inhibit
same,CD4+FoxP3+CD25+ cell induction,"[3]; IL-2+TGFβ, 10 days, highest concentration most effective",robust inhibition
